Experimental data: US11124490B2, “Autotaxin inhibitors” (UNIVERSITY OF TENNESSEE RESEARCH FOUNDATION, priority 2016, dated 2021)
“And” between values parts separate entries of the source, which are not always exact repeats. Identical values can stand only once.

Key:
human recombinant ATX [1] = biological target: T1, human recombinant ATX (Homo sapiens (Human), UniProt Q13822); experiment: ATX inhibition, hydrolysis of FRET substrate FS-3; assay type: biochemical; details: for IC50: 1 μM FS-3, 4 nM human recombinant ATX, 1 hour time point, read-out: IC50 (nM ± SD) vs FS-3
Description: (§1) ATX Generation: Human recombinant ATX was expressed as published previously, using Sf9 Spodoptera frugiperda ovary cells (Invitrogen, Carlsbad, Calif.).^13 Suspension cells were grown to a 1 liter quantity at a concentration of 1×10^6 cells/ml in Sf-900 III serum-free medium (Invitrogen) supplemented with 50 U/ml penicillin and 50 μg/ml streptomycin at 27° C. with agitation. Cells were then infected with high-titer baculovirus generated via Bac-to-Bac Baculovirus Expression System (Invitrogen) using the pCMV5 mammalian expression vector containing the C-terminal FLAG-tagged human ATX sequence (a generous gift from Dr. Junken Aoko, ohoku University, Aoba-ku, Sendai, Japan) subcloned into the pFastBacl transfer vector. […] Resultant ATX was then concentrated via centrifugation in Amicon Ultra 30,000 molecular weight cut off filter units (Millipore, Billerica, Mass.) and subsequent buffer exchange into storage buffer comprised of 50 mM Tris, pH 7.4 with 20% (v/v) ethylene glycol. Protein was held at −80° C. for long-term storage.
(§2) ATX Inhibition: ATX activity was assessed via hydrolysis of the synthetic, lipid-like FRET-based substrate FS-3 (Echelon Biosciences, Salt Lake City, Utah) or via hydrolysis of the nucleotide substrate p-nitrophenyl thymidine 5′-monophosphate (pNP-TMP) as described previously.^2 Reaction wells were loaded in 60 μl volumes in triplicate wells of half-area, black-wall 96-well plates in assay buffer consisting of 50 mM Tris, 140 mM NaCl, 5 mM KCl, 1 mM CaCl2, 1 mM MgCl2, […] BSA, pH 8.0. […] Fluorescence was read every 2 minutes for 1 hour at excitation/emission wavelengths of 485/528 nm for FS-3 hydrolysis or 405 nm absorbance for pNP-TMP hydrolysis using a FlexStation 3 microplate reader (Molecular Devices, Sunnyvale, Calif.). Data (relative fluorescence or absorbance) were then recorded as a mean value of the triplicates for each sample versus time. […] In the case of mechanism determination, the linear fluorescence data from time 10 minutes to 30 minutes were then transformed using a carboxyfluorescein standard curve to determine product concentration and plotted separately. Linear trend lines were inserted using Microsoft Excel, the slope of which represent the rates of reaction for each substrate concentration. This reaction rate data for each inhibitor concentration were then plotted against substrate (FS-3) concentration and simultaneously fitted via non-linear regression in the Michaelis-Menten equations for competitive, non-competitive, uncompetitive, and mixed-mode inhibition using GraphPad Prism version 5.0a. Mechanism of inhibition was determined by which curve fit had the best global fit (R^2 value).

human recombinant ATX [2] = biological target: T1, human recombinant ATX; experiment: ATX inhibition, hydrolysis of nucleotide substrate pNP-TMP; assay type: biochemical; details: 1 mM pNP-TMP, 4 nM ATX, compound 0 to 1 μM
Description: as §1, §2

O=C(Nc1cc(F)c(F)c(F)c1)c1cc(NN2CCOCC2)c(Cl)cc1Cl [Compound 25, 2,4-dichloro-5-(morpholinoamino)-N-(3,4,5-trifluorophenyl)benzamide]
ATX inhibitory activity (in words) (human recombinant ATX [1]): inactive | IC50 (human recombinant ATX [1]): > 1000 nM | pNP-TMP Inhibition (human recombinant ATX [2]): None

O=S(=O)(c1cc(-c2nc3cc(F)c(F)cc3[nH]2)c(Cl)cc1Cl)N1CCOCC1 [Compound 8, 4-((2,4-dichloro-5-(5,6-difluoro-1H-benzo[d]imidazol-2-yl)phenyl)sulfonyl)-morpholine]
ATX inhibitory activity (in words) (human recombinant ATX [1]): inactive

O=S(=O)(c1cc(CNc2ccc(F)c(F)c2)c(Cl)cc1Cl)N1CCOCC1 [Compound 10, N-(2,4-dichloro-5-(morpholinosulfonyl)benzyl)-3,4-difluoroaniline]
ATX inhibitory activity (in words) (human recombinant ATX [1]): greatly deteriorated | pNP-TMP Inhibition (human recombinant ATX [2]): None

CN1CCN(S(=O)(=O)c2cc(C(=O)Nc3cc(F)c(F)c(F)c3)c(Cl)cc2Cl)CC1 [Compound 28a, 2,4-dichloro-5-((4-methylpiperazin-1-yl)sulfonyl)-N-(3,4,5-trifluorophenyl)-benzamide]
IC50 (human recombinant ATX [1]): 66 nM and 66.9 nM | pNP-TMP Inhibition (human recombinant ATX [2]): None

N#Cc1c(F)cc(NC(=O)c2cc(S(=O)(=O)N3CCOCC3)c(Cl)cc2Cl)cc1F [Compound 3h, 2,4-dichloro-N-(4-cyano-3,5-difluorophenyl)-5-(morpholinosulfonyl)benzamide]
IC50 (human recombinant ATX [1]): 190 ± 13.1 nM | pNP-TMP Inhibition (human recombinant ATX [2]): None

O=S(=O)(c1cc(C(=S)Nc2ccc(F)c(F)c2)c(Cl)cc1Cl)N1CCOCC1 [Compound 13, 2,4-dichloro-N-(3,4-difluorophenyl)-5-(morpholinosulfonyl)benzothioamide]
IC50 (human recombinant ATX [1]): 67.3 ± 9.73 nM | pNP-TMP Inhibition (human recombinant ATX [2]): None

O=S(=O)(c1cc(-c2nc3cccc(F)c3o2)c(Cl)cc1Cl)N1CCOCC1 [Compound 7, 2-(2,4-dichloro-5-(morpholinosulfonyl)phenyl)-7-fluorobenzo[d]oxazole]
ATX inhibitory activity (in words) (human recombinant ATX [1]): inactive

O=S(=O)(c1cc(C(=S)Nc2cc(F)c(F)c(F)c2)c(Cl)cc1Cl)N1CCOCC1 [Compound 14, 2,4-dichloro-5-(morpholinosulfonyl)-N-(3,4,5-trifluorophenyl)benzothioamide]
fold IC50 improvement relative to screening hit 918013 (human recombinant ATX [1]): three fold | IC50 (human recombinant ATX [1]): 35.3 ± 2.66 nM | pNP-TMP Inhibition (human recombinant ATX [2]): None

O=C(Nc1cc(F)c(C(=O)O)c(F)c1)c1cc(S(=O)(=O)N2CCOCC2)c(Cl)cc1Cl [Compound 4, 4-(2,4-dichloro-5-(morpholinosulfonyl)benzamido)-2,6-difluorobenzoic Acid]
ATX inhibitory activity (in words) (human recombinant ATX [1]): relatively inactive | IC50 (human recombinant ATX [1]): > 1000 nM | pNP-TMP Inhibition (human recombinant ATX [2]): None

O=S(=O)(c1cc(C(=S)Nc2cccc(F)c2)c(Cl)cc1Cl)N1CCOCC1 [Compound 12, 2,4-dichloro-N-(3-fluorophenyl)-5-(morpholinosulfonyl)benzothioamide]
IC50 (human recombinant ATX [1]): 121.5 ± 1.02 nM | pNP-TMP Inhibition (human recombinant ATX [2]): None

O=S(=O)(Nc1cccc(F)c1)c1cc(S(=O)(=O)N2CCOCC2)c(Cl)cc1Cl [Compound 22, 2,4-dichloro-N-(3-fluorophenyl)-5-(morpholinosulfonyl)benzenesulfonamide]
IC50 (human recombinant ATX [1]): > 1000 nM | pNP-TMP Inhibition (human recombinant ATX [2]): None

O=S(=O)(c1cc(CNc2cc(F)c(F)c(F)c2)c(Cl)cc1Cl)N1CCOCC1 [Compound 11, N-(2,4-dichloro-5-(morpholinosulfonyl)benzyl)-3,4,5-trifluoroaniline]
IC50 (human recombinant ATX [1]): 396 ± 44.1 nM | pNP-TMP Inhibition (human recombinant ATX [2]): None

CN(C(=O)c1cc(S(=O)(=O)N2CCOCC2)c(Cl)cc1Cl)c1cccc(F)c1 [Compound 9, 2,4-dichloro-N-(3-fluorophenyl)-N-methyl-5-(morpholinosulfonyl)benzamide]
ATX inhibitory activity (in words) (human recombinant ATX [1]): low activity

CN1CCN(S(=O)(=O)c2cc(C(=O)Nc3cc(Cl)c(F)c(Cl)c3)c(Cl)cc2Cl)CC1 [Compound 28b, 2,4-dichloro-N-(3,5-dichloro-4-fluorophenyl)-5-((4-methylpiperazin-1-yl)sulfonyl)benzamide]
IC50 (human recombinant ATX [1]): 55 nM and 55.5 nM | pNP-TMP Inhibition (human recombinant ATX [2]): None

COC(=O)c1c(F)cc(NC(=O)c2cc(S(=O)(=O)N3CCOCC3)c(Cl)cc2Cl)cc1F [Compound 3i, Methyl 4-(2,4-dichloro-5-(morpholinosulfonyl)benzamido)-2,6-difluorobenzoate]
IC50 (human recombinant ATX [1]): 864 ± 51.9 nM | pNP-TMP Inhibition (human recombinant ATX [2]): None

O=C(Nc1c(F)c(F)c(F)c(F)c1F)c1cc(S(=O)(=O)N2CCOCC2)c(Cl)cc1Cl [Compound 3c, 2,4-dichloro-5-(morpholinosulfonyl)-N-(perfluorophenyl)benzamide]
ATX inhibitory activity (in words) (human recombinant ATX [1]): poorly active | IC50 (human recombinant ATX [1]): 1030 nM | pNP-TMP Inhibition (human recombinant ATX [2]): None

CN1CCN(S(=O)(=O)c2cc(C(=S)Nc3cc(Cl)c(F)c(Cl)c3)c(Cl)cc2Cl)CC1 [Compound 29, 2,4-dichloro-N-(3,5-dichloro-4-fluorophenyl)-5-((4-methylpiperazin-1-yl)sulfonyl)-benzothioamide]
IC50 (human recombinant ATX [1]): 100 ± 8.11 nM | pNP-TMP Inhibition (human recombinant ATX [2]): None

COc1cc(NC(=O)c2cc(S(=O)(=O)N3CCOCC3)c(Cl)cc2Cl)cc(OC)c1OC [Compound 3e, 2,4-dichloro-5-(morpholinosulfonyl)-N-(3,4,5-trimethoxyphenyl)benzamide]
ATX inhibitory activity (in words) (human recombinant ATX [1]): poorly active | IC50 (human recombinant ATX [1]): > 1000 nM | pNP-TMP Inhibition (human recombinant ATX [2]): None

O=S(=O)(Nc1cc(F)c(F)c(F)c1)c1cc(S(=O)(=O)N2CCOCC2)c(Cl)cc1Cl [Compound 23, 2,4-dichloro-5-(morpholinosulfonyl)-N-(3,4,5-trifluorophenyl)benzenesulfonamide]
IC50 (human recombinant ATX [1]): > 1000 nM | pNP-TMP Inhibition (human recombinant ATX [2]): None

O=S(=O)(c1cc(C(=S)Nc2cc(Cl)c(F)c(Cl)c2)c(Cl)cc1Cl)N1CCOCC1 [Compound 15, 2,4-dichloro-N-(3,5-dichloro-4-fluorophenyl)-5-(morpholinosulfonyl)-benzothioamide]
IC50 (human recombinant ATX [1]): 83.1 ± 9.77 nM | pNP-TMP Inhibition (human recombinant ATX [2]): None

CS(=O)(=O)N(C(=O)c1cc(NN2CCOCC2)c(Cl)cc1Cl)c1cc(F)c(F)c(F)c1 [Compound 26a, 2,4-dichloro-N-(methylsulfonyl)-5-(morpholinoamino)-N-(3,4,5-trifluorophenyl)-benzamide]
ATX inhibitory activity (in words) (human recombinant ATX [1]): inactive | IC50 (human recombinant ATX [1]): > 1000 nM | pNP-TMP Inhibition (human recombinant ATX [2]): None

O=S(=O)(c1cc(N(S(=O)(=O)c2cccc(F)c2)S(=O)(=O)c2cccc(F)c2)c(Cl)cc1Cl)N1CCOCC1 [Compound 20]
IC50 (human recombinant ATX [1]): > 1000 nM | pNP-TMP Inhibition (human recombinant ATX [2]): None

O=C(Nc1cc(F)c(F)c(F)c1Br)c1cc(S(=O)(=O)N2CCOCC2)c(Cl)cc1Cl [Compound 5, N-(2-bromo-3,4,5-trifluorophenyl)-2,4-dichloro-5-(morpholinosulfonyl)benzamide]
ATX inhibitory activity (in words) (human recombinant ATX [1]): strong ATX inhibition | fold IC50 improvement relative to screening hit 918013 (human recombinant ATX [1]): seven fold

O=C(Nc1cccc(F)c1)c1cc(S(=O)(=O)N2CCOCC2)c(Cl)cc1Cl [Compound 918013, 2,4-dichloro-N-(3-fluorophenyl)-5-(morpholinosulfonyl)benzamide, reference compound]
IC50 (human recombinant ATX [1]): 117 ± 1.97 nM | Mechanism (human recombinant ATX [1]; mechanism of inhibition, FS-3 0 to 10 μM, inhibitor 0, 0.5×IC50 or 2×IC50): Competitive | pNP-TMP Inhibition (human recombinant ATX [2]): None

O=C(Nc1cc(Cl)c(Cl)c(Cl)c1)c1cc(S(=O)(=O)N2CCOCC2)c(Cl)cc1Cl [Compound 3d, 2,4-dichloro-5-(morpholinosulfonyl)-N-(3,4,5-trichlorophenyl)benzamide]
ATX inhibitory activity (in words) (human recombinant ATX [1]): poorly active | IC50 (human recombinant ATX [1]): > 1000 nM | pNP-TMP Inhibition (human recombinant ATX [2]): None

O=S(=O)(Nc1cc(S(=O)(=O)N2CCOCC2)c(Cl)cc1Cl)c1cccc(F)c1 [Compound 19]
IC50 (human recombinant ATX [1]): > 1000 nM | pNP-TMP Inhibition (human recombinant ATX [2]): None
